In ChEMBL document CHEMBL6153094, “Rationally designed highly amphipathic antimicrobial peptides demonstrating superior bacterial selectivity relative to the corresponding α-helix peptide” (Eur J Med Chem, 2025):
Activity calls are given as the source filed them. No cut-off for these calls is given here.

Legend:
[1] = system: Pseudomonas aeruginosa; assay: Antibacterial activity against Pseudomonas aeruginosa ATCC 27853 incubated for 18 hrs in presence of FeCl3 by Mueller-Hinton broth based assay; assay type: functional, organism-based
[2] = system: Pseudomonas aeruginosa; assay: Induction of morphological changes in Pseudomonas aeruginosa ATCC 27853 assessed as cell adhesion at 2 times of MIC incubated for 30 to 120 mins by SEM analysis; assay type: functional, organism-based; details: time 30-120 min
[3] = system: Pseudomonas aeruginosa; assay: Antibacterial activity against Pseudomonas aeruginosa ATCC 27853 incubated for 18 hrs in presence of ZnCl2 by Mueller-Hinton broth based assay; assay type: functional, organism-based
[4] = system: Staphylococcus aureus; assay: Antimicrobial activity against gentamicin-resistant Staphylococcus aureus ATCC 25923 assessed as inhibition of visible bacterial growth incubated for 18 hrs by broth-dilution method; assay type: functional
[5] = system: Staphylococcus aureus; assay: Antibacterial activity against Staphylococcus aureus ATCC 25923 incubated for 18 hrs in presence of FeCl3 by Mueller-Hinton broth based assay; assay type: functional, organism-based
[6] = system: Staphylococcus aureus; assay: Antimicrobial activity against methicillin-drug resistant Staphylococcus aureus clinical isolate 2 assessed as concentration required to eliminate 90% bacteria incubated for 18 hrs by broth-microdilution method; assay type: functional
[7] = system: Klebsiella pneumoniae; assay: Antibacterial activity against Klebsiella pneumoniae ATCC 700603 infected in male Balb/c mouse model of pneumonia assessed as decrease in decrease in IL-6 level in lung at 2.5 to 10 mg/kg, ip administered at 4 and 12 hrs post-infected and measured after 24 hrs by ELISA; assay type: functional, organism-based; details: dose 2.5-10 mg/kg, time 20.0 hrs
[8] = system: Pseudomonas aeruginosa; assay: Antibacterial activity against Pseudomonas aeruginosa ATCC 27853 assessed as fold change in MIC incubated for 18 hrs in presence of KCl by Mueller-Hinton broth based assay; assay type: functional
[9] = system: Staphylococcus aureus; assay: Antibiofilm activity in Staphylococcus aureus ATCC 25923 assessed as inhibition of biofilm formation at 2 times of MIC incubated for 24 hrs by crystal violet staining based analysis relative to control; assay type: functional
[10] = system: Pseudomonas aeruginosa; assay: Bactericidal activity against Pseudomonas aeruginosa ATCC 27853 assessed as bacterial eradication at 1 times of MIC measured after 60 mins by time-kill kinetics assay; assay type: functional, organism-based
[11] = system: DNA; assay: Binding affinity to Staphylococcus aureus ATCC 25923 DNA at 2 times of MIC measured after 30 mins by agarose gel electrophoresis; assay type: nucleic-acid assay
[12] = system: Pseudomonas aeruginosa; assay: Induction of morphological changes in Pseudomonas aeruginosa ATCC 27853 assessed as membrane disruption at 2 times of MIC incubated for 30 to 120 mins by SEM analysis; assay type: functional, organism-based; details: time 30-120 min
[13] = system: Cell membrane; assay: Disruption of outer membrane integrity in Pseudomonas aeruginosa ATCC 27853 assessed as increase in fluorescence intensity at 4 times of MIC measured for 12 mins by NPN uptake assay; assay type: subcellular
[14] = system: Bacillus subtilis; assay: Antimicrobial activity against Bacillus subtilis ATCC 23857 assessed as inhibition of visible bacterial growth incubated for 18 hrs by broth microdilution method; assay type: functional
[15] = system: Staphylococcus aureus; assay: (§1) Antibacterial activity against methicillin-resistant Staphylococcus aureus ATCC 33591 infected in male Balb/c mouse model of full thickness skin wound assessed as reduction in bacterial load in skin at 1 mg/ml pre-infected with bacteria for 1 hrs followed by compound administration at 1,24,48 and 72 hrs post infection and measured 60 hrs post infection by agar plate method; assay type: functional, organism-based; details: time 59.0 hrs
[16] = system: Staphylococcus epidermidis; assay: Antimicrobial activity against Staphylococcus epidermidis ATCC 12228 assessed as inhibition of visible bacterial growth incubated for 18 hrs by broth-dilution method; assay type: functional
[17] = system: Klebsiella pneumoniae; assay: Antibacterial activity against Klebsiella pneumoniae ATCC 700603 infected in male Balb/c mouse model of pneumonia assessed as decrease in decrease in TNF-alpha level in lung at 2.5 to 10 mg/kg, ip administered at 4 and 12 hrs post-infected and measured after 24 hrs by ELISA; assay type: functional, organism-based; details: dose 2.5-10 mg/kg, time 20.0 hrs
[18] = system: Pseudomonas aeruginosa; assay: Bactericidal activity against Pseudomonas aeruginosa ATCC 27853 assessed as bacterial eradication at 4 times of MIC measured within 30 mins by time-kill kinetics assay; assay type: functional, organism-based
[19] = system: Staphylococcus aureus; assay: Resistance fold, ratio of MIC for Staphylococcus aureus ATCC 25923 measured after 20 passages in presence of gentamicin to MIC for Staphylococcus aureus ATCC 25923 measured immediately in presence of gentamicin; assay type: functional
[20] = system: Cell membrane; assay: Disruption of outer membrane integrity in Pseudomonas aeruginosa ATCC 27853 assessed as increase in fluorescence intensity at 2 times of MIC measured for 12 mins by NPN uptake assay; assay type: subcellular
[21] = system: Pseudomonas aeruginosa; assay: Antibacterial activity against Pseudomonas aeruginosa ATCC 27853 assessed as inhibition of bacterial growth compound pretreated with 256 microg/ml of LPS for 1 hrs followed by bacterial addition and measured after 18 hrs by absorbance based assay; assay type: functional, organism-based
[22] = Toxicity in male Balb/c mouse assessed as mortality at 80 mg/kg, ip measured after 7 days relative to control; assay type: organism-based; details: in vivo, time 7 day
[23] = system: Enterococcus faecalis; assay: Antimicrobial activity against Enterococcus faecalis ATCC 29212 assessed as inhibition of visible bacterial growth incubated for 18 hrs by broth-dilution method; assay type: functional
[24] = system: Staphylococcus aureus; assay: Antibacterial activity against Staphylococcus aureus ATCC 25923 assessed as fold change in MIC incubated for 18 hrs in presence of NaCl by Mueller-Hinton broth based assay; assay type: functional
[25] = system: Escherichia coli; assay: Antimicrobial activity against Escherichia coli ATCC 25922 assessed as inhibition of visible bacterial growth incubated for 18 hrs by broth microdilution method; assay type: functional
[26] = system: Staphylococcus aureus; assay: Antimicrobial activity against methicillin-drug resistant Staphylococcus aureus clinical isolate 936 assessed as concentration required to eliminate 90% bacteria incubated for 18 hrs by broth-microdilution method; assay type: functional
[27] = system: Pseudomonas aeruginosa; assay: Antibacterial activity against Pseudomonas aeruginosa ATCC 27853 assessed as fold change in MIC incubated for 18 hrs in presence of 5% serum by broth microdilution method; assay type: functional
[28] = Toxicity in male Balb/c mouse assessed as mortality at 100.8 mg/kg, ip measured after 7 days relative to control; assay type: organism-based; details: in vivo, time 7 day
[29] = system: Staphylococcus aureus; assay: Antibacterial activity against Staphylococcus aureus ATCC 25923 assessed as inhibition of bacterial growth at 2 times of MIC incubated for 18 hrs in presence of <2 microg/ml of trypsin by absorbance based assay; assay type: functional, organism-based
[30] = system: Staphylococcus aureus; assay: Antimicrobial activity against methicillin-drug resistant Staphylococcus aureus clinical isolate 74 assessed as concentration required to eliminate 90% bacteria incubated for 18 hrs by broth-microdilution method; assay type: functional
[31] = system: Staphylococcus aureus; assay: as §1, with “decrease” for “reduction”, “cell necrosis” for “bacterial load”, “1,12” for “1,24,48”, “36” for “72”, “after 10 days” for “60 hrs post infection”, “H and E staining based analysis” for “agar plate method”; assay type: functional, organism-based; details: time 10.0 day
[32] = system: Pseudomonas aeruginosa; assay: Antibacterial activity against Pseudomonas aeruginosa ATCC 27853 incubated for 18 hrs in presence of MgCl2 by Mueller-Hinton broth based assay; assay type: functional, organism-based
[33] = system: Klebsiella pneumoniae; assay: Antibacterial activity against Klebsiella pneumoniae ATCC 700603 infected in male Balb/c mouse model of pneumonia assessed as decrease in inflammatory cell infiltration in […] at 2.5 mg/kg, ip administered at 4 and 12 hrs post-infected and measured after 24 hrs by H and E staining based analysis; assay type: functional, organism-based; details: time 20.0 hrs
[34] = system: Pseudomonas aeruginosa; assay: Antimicrobial activity against Pseudomonas aeruginosa ATCC 27853 assessed as inhibition of visible bacterial growth incubated for 18 hrs by broth microdilution method; assay type: functional
[35] = system: Staphylococcus aureus; assay: Bactericidal activity against Staphylococcus aureus ATCC 25923 assessed as bacterial eradication at 1 times of MIC measured within 90 mins by time-kill kinetics assay; assay type: functional, organism-based

## H-RRWFRRWRRWFR-NH2
[1]
  Activity: Active
[2]
  Activity: Active
[3]
  Activity: Active
[4]
  MIC: 4 µM
[5]
  Activity: Active
[6]
  EC90: 2860 nM
[7]
  Activity: inactive
[8]
  fold change (FC): 2
[9]
  inhibition (INH): ~75%
[10]
  Activity: Active
[11]
  Activity: Active
[12]
  Activity: Active
[13]
  Activity: Active
[14]
  MIC: 1 µM
[15]
  Activity: Active
[16]
  MIC: 1 µM
[17]
  Activity: Active
[18]
  Activity: Active
[19]
  fold change (FC): <=2
[20]
  Activity: Active
[21]
  Activity: Not active; Compound Binds To Lps To Exert Its Activity
[22]
  mortality at 168 h: 25%
[23]
  MIC: 8 µM
[24]
  fold change (FC): 2
[25]
  MIC: 4 µM
[26]
  EC90: 5220 nM
[27]
  fold change (FC): 64
[28]
  mortality at 168 h: 75%
[29]
  Activity: Active
[30]
  EC90: 2430 nM
[31]
  Activity: Active
[32]
  Activity: Active
[33]
  Activity: Active
[34]
  MIC: 2 µM
[35]
  Activity: Active
